The subject of the experiment is human G6PC promoter luciferase reporter in H4IIE rat hepatoma cells. Kind of experiment: H4IIE G6P-Luc reporter assay (luciferase under control of the G6PC promoter, clone C17-2). It counts as cell-based. The settings on record: for Geometric mean of measured relative potency: pre-qualification study. The text has this:
The H4IIE G6P-Luc C17-2 stable cell line was generated by stably expressing Luciferase reporter gene under the control of G6PC promoter via lentivirus technology. Briefly, the human G6PC promoter −1227/+57 sequence (SEQ ID NO: 1) was synthesized and subcloned into pLenti-NFAT-Luc vector to replace NFAT promoter. Lentivirus was generated comprising the construct and H4IIE parental cells were transduced with the lentivirus and screened with the selection antibiotic Hygromycin B. The resulting stable pool cells were validated by quantitative polymerase chain reaction (qPCR) and luciferase assay. The initial work of generating a H4IIE G6P-Luc stable cell line was outsourced to GenScript, Piscataway, N.J. USA. The stable cell pool was re-cloned in-house with limiting dilutions to identify additional clones. H4IIE_G6P-Luc C17-2 is a single clone stable cell line selected for its high assay window (difference in fluorescence detected in a sample containing 1 nM insulin versus fluorescence detected in a sample containing no insulin) and fast growth rate.
The H4IIE_G6P-Luc_C17-2 cells were cultured in Dulbecco's Modified Eagle's medium (DMEM), supplemented with 10% fetal bovine serum (FBS), 1× penicillin-streptomycin, and 0.3 mg/mL Hygromycin B. […] 25 μL insulin titration was aliquoted into the wells of a solid white 96-well tissue-culture treated assay plate. […] Afterwards, […] of ONE-GLO luciferase regent was added to the assay plate. After 10 minutes incubation at room temperature, luminescence signal was read on the EnVision plate reader (Perkin Elmer, Waltham, Mass. USA).

Here are results for two substances from US20220026414A1, “CELL-BASED BIOIDENTITY TEST FOR INSULIN” (Merck Sharp & Dohme Corp., priority 2018, published 2022).

As for Insulin glargine, the “inhibition of luciferase reporter expression” value was “mild inhibition” (clone C17-2, 7-hour treatment (FIG. 2A)) and “robust inhibition” (clone C17-2, overnight treatment (17-hours) (FIG. 2A)). Moreover, where the note is “clone C17-2, lower amounts of FBS in assay medium (FIG. 2C)”, the “inhibition of luciferase expression” value is listed as “Less inhibition of luciferase expression”. Further, the dose response curve result (clone C17-2 after 29 cell passages (P29) (FIG. 2D)) is given as “well-formed dose response curve”. In addition, the “Geometric mean of measured relative potency” value runs as follows: (target relative potency 50% of reference material, N=12) 51; (target relative potency 71% of reference material, N=12) 68; (target relative potency 100% of reference material, N=24) 103; (target relative potency 141% of reference material, N=12) 132; (target relative potency 200% of reference material, N=12) 196.

Regarding “recombinant human insulin: NOVOLIN (recombinant human insulin) purchased from Novo Nordisk”, the “inhibition of luciferase reporter expression” value (top two clones (C17, C58), overnight treatment compared with seven-hour treatment (FIG. 1C)) was “significantly better inhibition”.
